From the NIST ThermoML archive (doi:10.1016/j.jct.2006.03.021)

Test: molar heat capacity at constant pressure
Conditions: 101.33 kPa, Crystal, Vacuum adiabatic calorimetry

O.OC[C@H]1O[C@@H](O[C@H]2O[C@H](CO)[C@@H](O)[C@H](O)[C@H]2O)[C@H](O)[C@@H](O)[C@@H]1O [α,β-trehalose monohydrate]
Conditions	molar heat capacity at constant pressure [J/K/mol]
143.36 K	226.95
145.42 K	229.87
147.49 K	232.93
149.55 K	235.92
150 K	236.64
151.6 K	238.94
153.65 K	242.05
155.7 K	244.94
157.76 K	248.08
159.82 K	250.99
160 K	251.27
161.88 K	253.84
163.94 K	256.98
166.01 K	260.01
168.09 K	262.9
170 K	265.74
170.15 K	265.9
172.2 K	268.93
174.23 K	271.83
176.25 K	274.9
178.26 K	277.71
180 K	280.12
180.26 K	280.35
182.24 K	283.42
184.22 K	286.13
186.18 K	288.99
188.13 K	291.83
190 K	294.51
190.07 K	294.5
191.99 K	297.33
193.92 K	300.26
195.86 K	302.94
197.82 K	305.58
199.78 K	308.6
200 K	308.94
201.75 K	311.51
203.73 K	314.35
205.72 K	317.15
207.72 K	320.03
209.73 K	323.23
210 K	323.42
211.76 K	326.07
213.79 K	328.83
215.82 K	331.74
217.85 K	335.14
219.89 K	337.71
220 K	337.95
221.94 K	340.79
223.97 K	343.7
226.01 K	346.53
228.06 K	349.68
230 K	352.54
230.09 K	352.7
232.12 K	355.67
234.16 K	358.66
236.2 K	361.46
238.24 K	364.57
240 K	367.19
240.3 K	367.64
242.38 K	370.71
244.44 K	373.64
246.49 K	376.59
248.54 K	379.8
250 K	381.89
250.58 K	382.78
252.6 K	385.78
254.62 K	388.6
256.63 K	391.62
258.63 K	394.61
260 K	396.69
260.63 K	397.5
262.91 K	400.41
264.59 K	403.48
266.56 K	406.35
268.52 K	409.35
270 K	411.55
270.48 K	412.29
272.46 K	415.5
274.46 K	418.09
276.47 K	421.07
278.49 K	424.17
280 K	426.56
280.52 K	427.38
282.54 K	430.46
284.56 K	433.56
286.58 K	436.49
288.58 K	439.62
290 K	441.71
290.63 K	443
292.65 K	445.73
294.68 K	448.7
296.7 K	451.81
298.15 K	454.11
298.72 K	454.95
300 K	456.92
300.74 K	457.97
